Assay results as given in patent publication US4294757A, “20-O-Acylmaytansinoids” (Takeda Chemical Industries, Ltd, priority 1979, dated 1981).
≈ marks a conversion by molar mass, not a printed value.

How the values were obtained:
[1] = system: Hamigera avellanea IFO 7721; experiment: Antifungal activity against Hamigera avellanea IFO 7721, paper disc method; assay type: cell-based; conditions: IFO7721, paper disc 8 mm diameter, 0.02 ml of a 100 μg/ml solution, pH 7.0, read-out: Antifungal activity, φmm (zone of growth inhibition), Hamigera avellanea IFO 7721
Protocol: On the other hand, the antifungal activity of the test compound is assayed against Hamigera avellanea IFO 7721 by the paper disc method, employing agar plates [each containing the medium consisting of 3.5 g of disodium phosphate 0.5 g monopotassium phosphate, 5 g yeast extract (Difco), 10 g glucose, 15 g agar, 1000 ml distilled water, and adjusted to pH 7.0]. Thus, on the plates inoculated with the above microorganism, the zones of growth inhibition are determined using paper discs (supplied by Toyo Seisakusho, Japan, thin-type, 8 mm diameter) immersed with 0.02 ml of a 100 μg/ml solution of 20-O-acylmaytansinoid compound (I).

[2] = system: Tetrahymena pyriformis W; experiment: Antiprotozoal activity against Tetrahymena pyriformis W, serial dilution method; assay type: cell-based; conditions: 28° C., 44 to 48 hours, pH 7.0
Protocol: Then, with Tetrahymena pyriformis W strain used as the test microorganism and a medium composed of 20 g tryptose peptone (Difco), lg yeast extract, 2 g glucose, 1000 ml distilled water and 10 ml of a 1 M phosphate buffer of pH 7.0 as the assay medium, the microorganism is incubated at 28° C. for 44 to 48 hours, and the growth inhibitory activity of said antibiotic compound is assayed by the serial dilution method.

Structure (SMILES)	zone of inhibition at 100 µg/mL [1]	MIC [2]
COC1/C=C/C=C(\C)Cc2cc(OC(C)=O)c(Cl)c(c2)N(C)C(=O)CC(OC(=O)C(C)C)C2(C)OC2C(C)C2CC1(O)NC(=O)O2 (stereo not drawn) [PDM-3 20-acetate]	31 mm	2 µg/mL (≈ 3.02 µM)
COC1/C=C/C=C(\C)Cc2cc(OC(=O)c3ccccc3)c(Cl)c(c2)N(C)C(=O)CC(OC(=O)C(C)C)C2(C)OC2C(C)C2CC1(O)NC(=O)O2 (stereo not drawn) [PDM-3 20-benzoate]	35 mm	–
CCCC(=O)Oc1cc2cc(c1Cl)N(C)C(=O)CC(OC(=O)C(C)C)C1(C)OC1C(C)C1CC(O)(NC(=O)O1)C(OC)/C=C/C=C(\C)C2 (stereo not drawn) [PDM-3 20-butyrate]	40 mm	–
C/C=C/C(=O)Oc1cc2cc(c1Cl)N(C)C(=O)CC(OC(=O)C(C)C)C1(C)OC1C(C)C1CC(O)(NC(=O)O1)C(OC)/C=C/C=C(\C)C2 (stereo not drawn) [PDM-3 20-crotonate]	35 mm	–
COC1/C=C/C=C(\C)Cc2cc(OC(=O)C3CCCCC3)c(Cl)c(c2)N(C)C(=O)CC(OC(=O)C(C)C)C2(C)OC2C(C)C2CC1(O)NC(=O)O2 (stereo not drawn) [PDM-3 20-cyclohexylcarboxylate, PDM-3 20-cyclohexanecarboxylate]	22 mm	–
COC1/C=C/C=C(\C)Cc2cc(OC(=O)C(C)C)c(Cl)c(c2)N(C)C(=O)CC(OC(=O)C(C)C)C2(C)OC2C(C)C2CC1(O)NC(=O)O2 (stereo not drawn) [PDM-3 20-i-butyrate, PDM-3 20-isobutyrate]	40 mm	–
COC1/C=C/C=C(\C)Cc2cc(OC(=O)CC(C)C)c(Cl)c(c2)N(C)C(=O)CC(OC(=O)C(C)C)C2(C)OC2C(C)C2CC1(O)NC(=O)O2 (stereo not drawn) [PDM-3 20-i-valerate, PDM-3 20-isovalerate]	44 mm	2 µg/mL (≈ 2.84 µM)
COC1/C=C/C=C(\C)Cc2cc(OC(=O)c3ccccc3Br)c(Cl)c(c2)N(C)C(=O)CC(OC(=O)C(C)C)C2(C)OC2C(C)C2CC1(O)NC(=O)O2 (stereo not drawn) [PDM-3 20-o-bromobenzoate, PDM-3 20-ortho-bromobenzoate]	27 mm	–
COC1/C=C/C=C(\C)Cc2cc(OC(=O)Cc3ccccc3)c(Cl)c(c2)N(C)C(=O)CC(OC(=O)C(C)C)C2(C)OC2C(C)C2CC1(O)NC(=O)O2 (stereo not drawn) [PDM-3 20-phenylacetate]	31 mm	–
COC1/C=C/C=C(\C)Cc2cc(OC(=O)Nc3ccccc3)c(Cl)c(c2)N(C)C(=O)CC(OC(=O)C(C)C)C2(C)OC2C(C)C2CC1(O)NC(=O)O2 (stereo not drawn) [PDM-3 20-phenylcarbamate]	16.5 mm	≤ 1 µg/mL
COC1/C=C/C=C(\C)Cc2cc(OC(=O)c3ccccn3)c(Cl)c(c2)N(C)C(=O)CC(OC(=O)C(C)C)C2(C)OC2C(C)C2CC1(O)NC(=O)O2 (stereo not drawn) [PDM-3 20-picolinate]	21 mm	2 µg/mL (≈ 2.75 µM)
CCC(=O)Oc1cc2cc(c1Cl)N(C)C(=O)CC(OC(=O)C(C)C)C1(C)OC1C(C)C1CC(O)(NC(=O)O1)C(OC)/C=C/C=C(\C)C2 (stereo not drawn) [PDM-3 20-propionate]	34 mm	2 µg/mL (≈ 2.95 µM)
CCCCC(=O)Oc1cc2cc(c1Cl)N(C)C(=O)CC(OC(=O)C(C)C)C1(C)OC1C(C)C1CC(O)(NC(=O)O1)C(OC)/C=C/C=C(\C)C2 (stereo not drawn) [PDM-3 20-valerate]	44 mm	–
